From patent US8849577B2, “Methods of identifying biochemical pathways” (Metabolon, Inc., priority 2006, dated 2014) come the findings set out here.

Entries after “also recorded” stand apart in the source; their conditions may differ.

Common to all, as to format: cell-based, human
The subject of one experiment is adipocyte cells. In words: Metabolomic analysis of test compounds in adipocyte cultures. Particulars: Primary Adipocytes, 30 μM, vs DMSO; for number of compounds affected, # decreased / number of compounds affected, # increased: p < 0.01. The procedure:
(§1) The cell cultures used in this example were performed according to standard protocols with the cells in 10% FCS. […] The adipocytes were human and fully differentiated.
(§2) The target of the agent is not present in the cell cultures assayed, thus the changed compounds for each culture represent off-target effects, and therefore, the number of changed compounds can be used to generate a score that can be used as one criteria to rank the test compounds.

A further experiment deals with HepG2. In words: Metabolomic analysis of test compounds in HepG2 (hepatocyte) cultures. As to conditions: Hepatocytes, 30 μM, vs DMSO; for number of compounds affected, # decreased / number of compounds affected, # increased: p < 0.01. The procedure:
as §1, §2

In a further experiment the test system is preadipocyte cells. As to the kind of experiment: Comparative metabolomic analysis of PPAR activators in preadipocyte cells. As to conditions: 3 hours treatment. The procedure:
The cell used in this assay were preadipocyte cells from a human with a BMI of 23.29. The cells were plated at 1 million per well in 6-well plates. Eight cultures were used for each experimental group. The cells were washed with basal medium (1 ml/well) and treated with compounds in 1 ml of basal medium for 3 hours. After treatment, the cells were then washed with PBS (1 ml), two times and then trypsinized with 300 μl for 5 minutes at 37 degrees. One ml of PM-1 was then added per well to neutralized the trypsin and the cells were collected in 1.5 ml eppendorf tube. The cells were then pelleted by centrifugation (280×g) and the pellets were washed with PBS (1 ml). The cell pellets were then frozen at −80 degrees.

With `COC(=O)N[C@H](C(=O)N[C@@H](Cc1ccccc1)[C@@H](O)CN(Cc1ccc(-c2ccccn2)cc1)NC(=O)[C@@H](NC(=O)OC)C(C)(C)C)C(C)(C)C` [ATV], in the experiment with adipocyte cells, the “number of compounds affected, Total p < 0.01” value (“number … Total p < 0.01” for short) was 87; the “number of compounds affected, # decreased” value (“number … # decreased” below) is listed as 55; the “number of compounds affected, # increased” value (“number … # increased” below) came to 32. Also, in the experiment on HepG2, the “number … Total p < 0.01” value is reported as 71; the “number … # decreased” value is 55; the “number … # increased” value is on record as 16.
Turning to `CC(C)(Sc1ccc(CCN(CCCCC2CCCCC2)C(=O)NC2CCCCC2)cc1)C(=O)O` [GW7647], in the experiment on preadipocyte cells, the “Ratio Drug/DMSO: 3-phospho-I-serine” value was 0.89, the “Ratio Drug/DMSO: Isobar-17-includes-arginine-N-alpha-acetyl-ornithine” value amounted to 0.97, the “Ratio Drug/DMSO: Isobar-22-includes-glutamic acid-O-acetyl-L-serine” value stood at 0.86 and the “Ratio Drug/DMSO: Isobar-28-includes-L-threonine-L-allothreonine-L-homoserine” value amounted to 0.82. For the same molecule, in the experiment with preadipocyte cells, the “Ratio Drug/DMSO: L-alpha-glycerophosphorylcholine” value is given as 1.31, the “Ratio Drug/DMSO: N-acetyl-D-galactosamine” value stood at 0.98, the “Ratio Drug/DMSO: adenosine-5-monophosphate” value came to 1.41 and the “Ratio Drug/DMSO: alanine” value worked out at 0.95. For the same molecule, in the experiment with preadipocyte cells, the “Ratio Drug/DMSO: carnitine” value was determined as 0.83, the “Ratio Drug/DMSO: citric acid” value was 1.06, the “Ratio Drug/DMSO: gly-gly” value was determined as 1.12 and the “Ratio Drug/DMSO: glycerol” value stood at 1.14. Moreover, in the experiment on preadipocyte cells, the “Ratio Drug/DMSO: guanosine” value was 1.22, the “Ratio Drug/DMSO: hypoxanthine” value is reported as 1.89, the “Ratio Drug/DMSO: inosine” value was found to be 1.89 and the “Ratio Drug/DMSO: n-hexadecanoic acid” value was 1.02. Besides, in the experiment with preadipocyte cells, the “Ratio Drug/DMSO: octadecanoic acid” value stood at 1.02, the “Ratio Drug/DMSO: pantothenic acid” value was found to be 0.96, the “Ratio Drug/DMSO: phosphoenolpyruvate” value came to 0.91 and the “Ratio Drug/DMSO: serine” value was found to be 1.05. In the experiment with preadipocyte cells, the “Ratio Drug/DMSO: sn-glycerol-3-phosphate” value is 1.43; the “Ratio Drug/DMSO: tryptophan” value is on record as 1.06; the “metabolite change relative to DMSO control” value is “increase in glycerol; also recorded: more carnitine is being utilized to shuffle FA into the mitochondria and hence, levels decrease”.
With `CC1(COc2ccc(CC3SC(=O)NC3=O)cc2)CCCCC1` (stereo not shown) [Ciglitazone], in the experiment with preadipocyte cells, the “Ratio Drug/DMSO: 3-phospho-I-serine” value came to 0.91, the “Ratio Drug/DMSO: Isobar-17-includes-arginine-N-alpha-acetyl-ornithine” value is listed as 0.87, the “Ratio Drug/DMSO: Isobar-22-includes-glutamic acid-O-acetyl-L-serine” value is recorded as 0.99 and the “Ratio Drug/DMSO: Isobar-28-includes-L-threonine-L-allothreonine-L-homoserine” value was determined as 0.72. Besides, in the experiment with preadipocyte cells, the “Ratio Drug/DMSO: L-alpha-glycerophosphorylcholine” value came out at 1.81, the “Ratio Drug/DMSO: N-acetyl-D-galactosamine” value is 0.36, the “Ratio Drug/DMSO: adenosine-5-monophosphate” value is 1.09 and the “Ratio Drug/DMSO: alanine” value stood at 0.91. In addition, in the experiment with preadipocyte cells, the “Ratio Drug/DMSO: aspartate” value came out at 1.29, the “Ratio Drug/DMSO: carnitine” value is 0.90, the “Ratio Drug/DMSO: citric acid” value is 0.86 and the “Ratio Drug/DMSO: gamma-L-glutamyl-L-glutamin” value is 0.73. Moreover, in the experiment with preadipocyte cells, the “Ratio Drug/DMSO: glutamine” value is 0.78, the “Ratio Drug/DMSO: gly-gly” value was determined as 1.36, the “Ratio Drug/DMSO: glycerol” value is reported as 0.93 and the “Ratio Drug/DMSO: guanosine” value is 1.55. For the same molecule, in the experiment with preadipocyte cells, the “Ratio Drug/DMSO: hypoxanthine” value amounted to 1.76, the “Ratio Drug/DMSO: inosine” value is 2.25, the “Ratio Drug/DMSO: n-hexadecanoic acid” value was 1.05 and the “Ratio Drug/DMSO: o-phosphoethanolamine” value is listed as 5.42. In the experiment with preadipocyte cells, the “Ratio Drug/DMSO: octadecanoic acid” value was found to be 1.05, the “Ratio Drug/DMSO: oxidized-glutathione” value amounted to 0.77, the “Ratio Drug/DMSO: pantothenic acid” value was found to be 1.10 and the “Ratio Drug/DMSO: phosphoenolpyruvate” value came to 0.76. In the experiment on preadipocyte cells, the “Ratio Drug/DMSO: serine” value was 0.98, the “Ratio Drug/DMSO: sn-glycerol-3-phosphate” value was found to be 1.53, the “Ratio Drug/DMSO: threonine” value is recorded as 0.84 and the “Ratio Drug/DMSO: tryptophan” value is listed as 0.91.
Turning to `Cc1c(C)c2c(c(C)c1O)CCC(C)(COc1ccc(CC3SC(=O)NC3=O)cc1)O2` (stereo not shown) [Troglitazone, troglitazone], in the experiment on preadipocyte cells, the “Ratio Drug/DMSO: 3-phospho-I-serine” value turned out to be 0.77, the “Ratio Drug/DMSO: Isobar-17-includes-arginine-N-alpha-acetyl-ornithine” value is given as 0.82, the “Ratio Drug/DMSO: Isobar-22-includes-glutamic acid-O-acetyl-L-serine” value was determined as 0.92 and the “Ratio Drug/DMSO: Isobar-28-includes-L-threonine-L-allothreonine-L-homoserine” value worked out at 0.63. In addition, in the experiment on preadipocyte cells, the “Ratio Drug/DMSO: L-alpha-glycerophosphorylcholine” value was found to be 1.24, the “Ratio Drug/DMSO: N-acetyl-D-galactosamine” value is 0.91, the “Ratio Drug/DMSO: adenosine-5-monophosphate” value is 0.95 and the “Ratio Drug/DMSO: alanine” value amounted to 0.86. Also, in the experiment with preadipocyte cells, the “Ratio Drug/DMSO: aspartate” value is listed as 2.06, the “Ratio Drug/DMSO: carnitine” value came out at 0.92, the “Ratio Drug/DMSO: citric acid” value was found to be 0.77 and the “Ratio Drug/DMSO: gamma-L-glutamyl-L-glutamin” value was 0.64. In the experiment with preadipocyte cells, the “Ratio Drug/DMSO: glutamine” value was determined as 0.76, the “Ratio Drug/DMSO: gly-gly” value is reported as 1.42, the “Ratio Drug/DMSO: glycerol” value stood at 1.08 and the “Ratio Drug/DMSO: guanosine” value came out at 0.98. Moreover, in the experiment on preadipocyte cells, the “Ratio Drug/DMSO: hypoxanthine” value was 1.63, the “Ratio Drug/DMSO: inosine” value worked out at 1.58, the “Ratio Drug/DMSO: n-hexadecanoic acid” value worked out at 1.17 and the “Ratio Drug/DMSO: o-phosphoethanolamine” value was 1.50. Besides, in the experiment with preadipocyte cells, the “Ratio Drug/DMSO: octadecanoic acid” value came out at 1.18, the “Ratio Drug/DMSO: oxidized-glutathione” value came to 0.77, the “Ratio Drug/DMSO: pantothenic acid” value came to 1.33 and the “Ratio Drug/DMSO: phosphoenolpyruvate” value is on record as 0.85. Besides, in the experiment on preadipocyte cells, the “Ratio Drug/DMSO: serine” value was 0.86, the “Ratio Drug/DMSO: sn-glycerol-3-phosphate” value is 1.42, the “Ratio Drug/DMSO: threonine” value was 0.83 and the “Ratio Drug/DMSO: tryptophan” value was 0.98.
Regarding `Cc1cccc(C)c1OCC(=O)N[C@@H](Cc1ccccc1)[C@@H](O)C[C@H](Cc1ccccc1)NC(=O)[C@H](C(C)C)N1CCCNC1=O` [LPV], in the experiment on adipocyte cells, the “number … Total p < 0.01” value turned out to be 99; the “number … # decreased” value was 46; the “number … # increased” value is on record as 53. Further, in the experiment with HepG2, the “number … Total p < 0.01” value stood at 131; the “number … # decreased” value is reported as 27; the “number … # increased” value stood at 104.
